According to PMC7376037, “Recombinant expression, purification and PEGylation of Paneth cell peptide (cryptdin-2) with value added attributes against Staphylococcus aureus” (Scientific Reports, 2020):
In brackets after ≈: the same amount, converted by molar mass. Like-named read-outs stand apart in the source and are kept apart here. Bridge positions count the residues as written; N and C are the ends. Peptide text beside a SMILES is read from it.

Legend:
[1] = cited from earlier work
Description: However, lesser adverse effect was observed on cell membrane when treated with the PEGylated peptide. These findings correlated well with the increased MIC of the peptide as observed above. It is highly probable that site-specific mutation followed by PEG-conjugat ...

Staphylococcus aureus [2] = experiment: Radial diffusion (agar well diffusion) assay; assay type: cell-based, Staphylococcus aureus (ATCC 9144); conditions: peptide 100 µg/well, overnight 37 °C, S. aureus
Experimental: Antibacterial activity of all the cryptdin preparations was evaluated by performing radial diffusion assay. […] Following the addition of 20 μL aliquots of the cryptdin-2 preparations along with control sample (PBS) into a series of wells made in the gel, the plates were incubated overnight at 37 °C. The samples were examined for zone of clearance around the wells indicating inhibition of bacterial growth.

Staphylococcus aureus [3] = experiment: microbe, parasite or virus in culture; assay type: cell-based, Staphylococcus aureus (ATCC 9144)
Experimental: To determine MIC values of the peptide preparations, micro broth dilution assay was performed. Briefly, S. aureus cells were grown to mid-exponential phase and diluted to a concentration of approximately 10^7 CFU/mL. Different concentrations of AMP preparations were separately added to wells containing bacterial suspension (approximately 10^6 CFU/mL) in sterile 96-well flat-bottom plate. After incubation at 37 °C, cell growth inhibition was assessed by measuring the absorbance at 595 nm on microplate reader (BioTek). MIC was recorded as the lowest concentration of the peptide preparation at which no visible growth was observed.

RAW 264.7 cell lines = experiment: Cell cytotoxicity assay (AlamarBlue); assay type: cell-based, murine; conditions: 24 h
Experimental: The cytotoxicity of recombinant peptide variants towards RAW 264.7 cell lines was assessed using AlamarBlue (Resazurin), a cell metabolic activity reagent (Sigma)[40]. The log phase cells diluted (2 × 10^5/well) in Dulbecco's Modified Eagle Medium (DMEM) containing 10% fetal bovine serum (FBS) were cultured in 96-well microtiter plates and incubated for 12 h under 5% CO2 conditions at 37 °C. […] Following this, 0.02% Alamar blue reagent was added to the cells and incubated for 8 h. Fluorescence was measured with excitation wavelength at 545 nm and emission wavelength at 590 nm. The percent difference between treated and un-treated cells was calculated to determine percent cytotoxicity.

[4] = Serum stability (antimicrobial activity after incubation in mice sera); assay type: in vitro ADME; conditions: for reduction of antibacterial activity after 3 h incubation with mice sera: peptide at its MIC, 50% mice serum, 37 °C, read-out micro broth dilution against S. aureus, repeated thrice in triplicates
Experimental: The stability of purified peptide preparations in mice sera was evaluated as described previously[15] with some modifications. Briefly, 80 µL of 50% serum was added to each well of 96-well plates followed by addition of 10 µL of bacterial suspension. The total CFU/mL value was adjusted to be identical in all the samples. Each peptide preparation (10 μL) was added to different wells and incubated at 37 °C for 0, 3, and 6 h respectively. The antimicrobial activities were assessed by performing micro broth dilution assay as described above for determination of MIC against S. aureus. The sera of mice were confirmed for absence of any intrinsic antimicrobial activity prior to performing the test.

Staphylococcus aureus [5] = assay type: cell-based; conditions: for MIC in combination, Peptides: peptide concentration in combination with gentamicin, checkerboard, S. aureus
Experimental: To investigate the interactive effect of these recombinant peptides, a checkerboard assay[41] was performed using a clinically prescribed antibiotic (gentamicin) as the other antibacterial agent. The assay employs the same methodology followed for determination of the MIC as described above. MIC values of peptide and gentamicin were used in this assay in order to calculate the FIC values. All the three peptide variants and gentamicin were tried in different ratios to evaluate interaction of the agents in combination against S. aureus. The same was determined on the basis of the FIC index, wherein an index of ≤ 0.5 indicated a synergistic effect and an index > 0.5 and ≤ 2 indicated an additive or indifferent nature of interaction respectively and lastly, the interaction was confirmed to be antagonistic when the index was > 2.0.
FIC index is expressed as: FIC Index=A1/A+B1/B where A1 and B1 are the respective concentrations of gentamicin and peptide producing the combined MICs, while A and B are the MICs of the individual agents.

magainin 2
decrease in antimicrobial activity after PEG conjugation ([1]; 5 kDa PEG at N-terminal end): fourfold

CSCC[C@@H]1NC(=O)[C@H](CCCNC(=N)N)NC(=O)[C@H](CCC(=O)O)NC(=O)[C@H](CCCNC(=N)N)NC(=O)[C@H](CCCNC(=N)N)NC(=O)[C@H](CCCCN)NC(=O)[C@@H]2CSSC[C@@H]3NC(=O)[C@H](CC(C)C)NC(=O)[C@H]([C@@H](C)O)NC(=O)[C@H](Cc4ccc(O)cc4)NC(=O)[C@H](CCSC)NC(=O)[C@H](CC(C)C)NC(=O)[C@H](Cc4c[nH]cn4)NC(=O)CNC(=O)[C@H](CCCCN)NC(=O)[C@H](CCCNC(=N)N)NC(=O)[C@H](CSSC[C@H](NC(=O)[C@H](Cc4ccc(O)cc4)NC(=O)[C@@H](NC(=O)[C@@H](NC(=O)[C@H](CC(C)C)NC(=O)[C@H](CC(=O)O)NC(=O)[C@H](CCCNC(=N)N)NC(=O)[C@@H](N)CC(C)C)C(C)C)CSSC[C@@H](C(=O)N[C@@H](CCCNC(=N)N)C(=O)O)NC3=O)C(=O)N[C@@H](CCCNC(=N)N)C(=O)N[C@@H]([C@@H](C)O)C(=O)N[C@@H](CCCNC(=N)N)C(=O)NCC(=O)N2)NC(=O)[C@H]([C@@H](C)O)NC(=O)CNC(=O)[C@H](CC(N)=O)NC1=O [cryptdin-2] (H-LRDLVCYCRTRGCKRRERMNGTCRKGHLMYTLCCR-OH; disulfide 6-34, 8-23, 13-33)
antimicrobial activity, zone of growth inhibition (Staphylococcus aureus [2]): potent antimicrobial activity | MIC (Staphylococcus aureus [3]): 20 µg/mL (≈ 4.71 µM) | cell viability (RAW 264.7 cell lines): approximately 70% | MIC after incubation with serum, 0 h [4]: 20 µg/mL | MIC after incubation with serum, 3 h [4]: 40 µg/mL | MIC after incubation with serum, 6 h [4]: 70 µg/mL | reduction of antibacterial activity after 3 h incubation with mice sera [4]: 50% | MIC in combination, Peptides (Staphylococcus aureus [5]): 2.5 µg/mL

CNC(C)C1CCC(N)C(OC2C(N)CC(N)C(OC3OCC(C)(O)C(NC)C3O)C2O)O1 (stereo not shown) [Gentamicin, gentamicin, reference compound]
MIC (Staphylococcus aureus [3]; agent alone against Staphylococcus aureus, Table 1, read-out: MIC): 0.097 µg/mL (≈ 0.203 µM)

nisin
antimicrobial activity after PEGylation ([1]; PEGylation via amine group of the lysine side-chain): inactive conjugate

CSCC[C@@H]1NC(=O)[C@H](CCCNC(=N)N)NC(=O)[C@H](CS)NC(=O)[C@H](CCCNC(=N)N)NC(=O)[C@H](CCCNC(=N)N)NC(=O)[C@H](CCCCN)NC(=O)[C@@H]2CSSC[C@@H]3NC(=O)[C@H](CC(C)C)NC(=O)[C@H]([C@@H](C)O)NC(=O)[C@H](Cc4ccc(O)cc4)NC(=O)[C@H](CCSC)NC(=O)[C@H](CC(C)C)NC(=O)[C@H](Cc4c[nH]cn4)NC(=O)CNC(=O)[C@H](CCCCN)NC(=O)[C@H](CCCNC(=N)N)NC(=O)[C@H](CSSC[C@H](NC(=O)[C@H](Cc4ccc(O)cc4)NC(=O)[C@@H](NC(=O)[C@@H](NC(=O)[C@H](CC(C)C)NC(=O)[C@H](CC(=O)O)NC(=O)[C@H](CCCNC(=N)N)NC(=O)[C@@H](N)CC(C)C)C(C)C)CSSC[C@@H](C(=O)N[C@@H](CCCNC(=N)N)C(=O)O)NC3=O)C(=O)N[C@@H](CCCNC(=N)N)C(=O)N[C@@H]([C@@H](C)O)C(=O)N[C@@H](CCCNC(=N)N)C(=O)NCC(=O)N2)NC(=O)[C@H]([C@@H](C)O)NC(=O)CNC(=O)[C@H](CC(N)=O)NC1=O [E18C cryptdin-2] (H-LRDLVCYCRTRGCKRRCRMNGTCRKGHLMYTLCCR-OH; disulfide 6-34, 8-23, 13-33)
antimicrobial activity, zone of growth inhibition (Staphylococcus aureus [2]): potent antimicrobial activity | cell viability (RAW 264.7 cell lines): ~65% | MIC after incubation with serum, 0 h [4]: 20 µg/mL | MIC after incubation with serum, 3 h [4]: 40 µg/mL | MIC after incubation with serum, 6 h [4]: 60 µg/mL | reduction of antibacterial activity after 3 h incubation with mice sera [4]: 50% | FIC indices (Staphylococcus aureus [5]): 0.375 | MIC in combination, Peptides (Staphylococcus aureus [5]): 2.5 µg/mL
